Data: US20090023700A1, “NEUROPROTECTIVE TREATMENTS” (University of Louisville Research Foundation, priority 2007, published 2009)

Assays:
[1] = tested on: T9 contusive spinal cord injury; test: Semmes-Weinstein filament test for at-level pain (allodynia); type: in vivo, rat; details: 100 μM, 28 d L5/6 infusion
Method: Whether bpV(phen) might have detrimental side effects, such as inducing pain at the level of the injury, was tested. Severe spinal cord injury can induce hypersensitivity and mechanical allodynia (a painful response to a nonpainful tactile skin stimulus) at the level of injury. […] Differences between any of the bpV(phen)- and PBS-treated groups in the overall health status, general behavior, and grooming of the rats were not observed.

[2] = tested on: Ser/Thr phosphatases; details: cited from earlier work
[3] = tested on: T9 contusive spinal cord injury; test: Sensory-evoked potentials (SEP) after 0.4 mm T9 contusion; type: in vivo, rat; details: 0.4 mm contusion
[4] = tested on: AP1; details: macrophages; cited from earlier work
[5] = target: T1, cdc25B PTP (Mus musculus, UniProt P30306); details: mouse enzyme; cited from earlier work
T1 sequence (P30306 1-576): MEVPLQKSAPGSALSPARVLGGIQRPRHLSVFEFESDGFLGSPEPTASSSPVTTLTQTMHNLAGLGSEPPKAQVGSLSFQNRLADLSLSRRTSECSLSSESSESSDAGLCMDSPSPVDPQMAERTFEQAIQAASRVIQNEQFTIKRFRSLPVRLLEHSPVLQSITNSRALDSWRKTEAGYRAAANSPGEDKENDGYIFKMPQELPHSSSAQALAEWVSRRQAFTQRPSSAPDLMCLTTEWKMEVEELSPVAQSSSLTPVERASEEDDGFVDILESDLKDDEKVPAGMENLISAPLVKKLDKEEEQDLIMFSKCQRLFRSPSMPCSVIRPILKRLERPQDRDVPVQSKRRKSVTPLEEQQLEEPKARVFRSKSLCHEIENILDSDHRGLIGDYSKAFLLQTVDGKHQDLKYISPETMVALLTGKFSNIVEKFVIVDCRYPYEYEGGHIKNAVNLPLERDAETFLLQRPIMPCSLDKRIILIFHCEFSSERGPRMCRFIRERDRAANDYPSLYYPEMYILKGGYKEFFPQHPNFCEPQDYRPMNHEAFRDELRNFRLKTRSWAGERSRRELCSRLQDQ

[6] = tested on: Madin-Darby canine kidney cells; details: H2O2-susceptible Madin-Darby canine kidney cells; cited from earlier work
[7] = tested on: Iba1; test: Iba1 immunostaining (microglial/macrophage activation) after T9 contusion; type: in vivo, rat; details: 7 d infusion started 4 h after injury
Method: Inflammation is a major contributor to white matter loss after spinal cord injury. Therefore, to find a potential mechanism for the axon- and myelin-protective effects of bpV(phen), its effects on Iba1 immunostaining were measured as a marker for microglial/macrophage activation and inflammation. […] Whereas, PBS-infused rats had clear infiltrates of activated macrophages, those infused with bpV(phen) had predominantly […] microglial cells. […] The extent of white matter loss in the dorsal column at the epicenter correlated to the extent of microglia/macrophage activation at the epicenter (FIG. 8B). The extent of inflammation 1 mm rostral to the injury correlated with the loss of CTB-labeled sensory projections in the gracile nucleus (FIG. 8C) but not with that seen at the epicenter (p=0.3) or caudal to the lesion (p=0.57). […] Conversely, the possibility that bpV(phen) affected inflammation at other times over the 7 d period cannot be excluded.
Anterogradely labeled sensory fibers and terminals were visualized in every third section through both gracile nuclei by DAB-based immunostaining for CTB as described previously (Baker et al. (2007) Exp Neurol 205:82-91). The lumbar sections were stained to ensure that the CTB injections were successful as evidenced by traced afferents and motor neurons. […] The epicenter of maximal injury was determined by the rostrocaudal level with the least amount of spared white matter per transverse section. […]
Quantitative measurements and statistics. The extent of sensory innervation of the gracile nucleus was determined by measuring the CTB-labeled terminal fiber area in every third section as described previously (Baker et al. (2007) Exp Neurol 205:82-91). In short, images of every third section through the right and left gracile nuclei were analyzed using the density slice feature of the Scion Image software. […] Images of EC-stained sections were captured, and the positive areas were measured with Scion Image. […]

[8] = tested on: T9 contusive spinal cord injury; test: Grid-walking sensorimotor test after T9 contusion
Method: Rats received a 0.3 mm contusion at T9 and 4 h later were implanted with a lumbar catheter to start infusions with PBS (n=9) or PBS containing 100 μM bpV(phen) (n=9). The treatment was maintained for 28 d by replacing the Alzet pumps every week with ones containing fresh reagents (FIG. 1A). Weekly hindlimb grid-walking performance was used to test sensorimotor function, which is in part dependent on the primary afferents and second-order propriospinal axons of the fasciculus gracilis in the dorsal columns. […] Naive rats take ˜150 s to complete the task.
Baseline values were determined a few days before the contusion. Sensorimotor function was tested by voluntary walking on a 45×45 inch grid with 1.5 inch holes. The hindlimb footfalls were called out by two investigators observing from different sides and recorded by a third. The test was completed after 90 s of walking was observed, and the total time was recorded.

[9] = tested on: cdc25B PTP; details: yeast enzyme; cited from earlier work

## O.O.O.OO.OO.[K+].[OH-].[V].c1cnc2c(c1)ccc1cccnc12 [bpV(phen), potassium bisperoxo(1,10-phenanthroline)oxovanadate (V)]
[1]
  induction of pain by chronic infusion: do not induce pain
[1]; entire test period
  Semmes-Weinstein filament size evoking a response (pain at level of injury): not different from those of the PBS group
[2]
  inhibition of Ser/Thr phosphatases: not
[3]; 100 μM 7 d lumbar infusion started immediately, one week after contusion, PBS 6+/−6, sham 16
  SEP amplitude, group average: 21+/−7 μV
[3]; 100 μM 7 d lumbar infusion, one week after contusion, PBS one of five
  rats with an SEP above background noise: four of five
[3]; 100 μM 7 d lumbar infusion, one week after termination of infusion, PBS 2+/−2, sham 36
  SEP amplitude, group average: 30+/−18 μV
[3]; 100 μM 7 d lumbar infusion, one week after termination of infusion, PBS one rat
  rats with a detectable SEP: all rats
[4]
  AP1 activation: activates
[5]
  inhibition of catalytic activity of purified cdc25B PTP: can inhibit
[6]
  cell death: does not cause death
[7]; 1 mm caudal to epicenter, p=0.49
  area of Iba1-immunostained structures: no difference
[7]; 1 mm rostral to epicenter, p<0.005
  area of Iba1-immunostained structures: significantly reduced
[7]; at the epicenter, p=0.053
  area of Iba1-immunostained structures: trend of a reduction
[8]; 100 μM L5/6 infusion started 4 h after contusion, 8 d, PBS 219 s, naive ~150 s
  total time to perform 90 s of grid walking: 151 s
[8]; 100 μM L5/6 infusion started 4 h after contusion, 8 d test, PBS 29+/−6, before contusion 7+/−1
  number of hindlimb footfalls (sum of both hindlimbs), grid walk: 14+/−2
[8]; 100 μM L5/6 infusion started 4 h after contusion, day 8, PBS one of nine
  rats within normal range of footfalls (3-14): seven of nine
[8]; 100 μM, 28 d L5/6 infusion started 4 h after contusion, 29 d test, PBS 13+/−2
  number of hindlimb footfalls, grid walk: 6+/−1
[8]; 100 μM, 28 d L5/6 infusion started 4 h after contusion, 36 d, PBS 200 s
  total time to perform 90 s of grid walking: 125 s
[9]
  inhibition of catalytic activity of purified cdc25B PTP: can inhibit
